This note sets out measurements from ChEMBL document CHEMBL1150658, “New ent-kaurane diterpenoids with anti-platelet aggregation activity from Annona squamosa” (2002).

Structures are written as SMILES.

Holding throughout (format): functional
Holding throughout (conditions): Oryctolagus cuniculus

Assay [1] can be described thus: Antiplatelet activity against washed rabbit platelet assessed as inhibition of arachidonic acid-induced platelet aggregation at 200 uM.
The nature of assay [2]: Antiplatelet activity against washed rabbit platelet assessed as inhibition of collagen-induced platelet aggregation at 200 uM.
A short description of assay [3]: Antiplatelet activity against washed rabbit platelet assessed as inhibition of platelet activating factor-induced platelet aggregation at 200 uM.
Assay [4] is described as follows: Antiplatelet activity against washed rabbit platelet assessed as inhibition of thrombin-induced platelet aggregation at 200 uM.

By inhibition is commonly meant the drop in the measured response relative to a control, in per cent. For the compound `C[C@@]12CCC[C@@](C)(C(=O)O)[C@H]1CC[C@@]13C[C@@H](CC[C@H]12)[C@](O)(CO)C3`, the inhibition at 200 µM in assay [1] was 14.9%; in assay [2], 8.6%; in assay [3] it was 14.4%; in assay [4], 6.8%.
In the same order, the values of `C[C@@]12CCC[C@@](C)(C(=O)O)[C@H]1CC[C@]13C[C@@H](CO)[C@H](CC[C@H]12)C3` are 4.1%, 23.8%, 7.4% and 2.8%.
For `C[C@@]12CCC[C@@](C)(O)[C@H]1CC[C@@]13C[C@@H](CC[C@H]12)[C@@H](C(=O)O)C3` the same measures were 4.5%, 30.5%, 13.3% and 2%.
As for `C[C@@]12CCC[C@@](C)(C(=O)O)[C@H]1CC[C@@]13C[C@@H](CC[C@H]12)[C@H](C(=O)O)C3`, the inhibition at 200 µM in assay [1] turned out to be 15.4%; in assay [2], 56.9%; in assay [3], 15.2%; in assay [4], 6%.
For `C[C@@]12CCC[C@@](C)(C=O)[C@H]1CC[C@@]13C[C@@H](CC[C@H]12)[C@@H](C(=O)O)C3` the same measures were 100%, 100%, 11.8% and 6.8%.
Turning to `CC(=O)O[C@@]1(CO)C[C@@]23CC[C@H]4[C@@](C)(CCC[C@@]4(C)O)[C@@H]2CC[C@@H]1C3` [ANNOSQUAMOSIN D], the inhibition at 200 µM in assay [1] stood at 4.9%; in assay [2] it was 10.6%; in assay [3] it was 9.3%; in assay [4], 2%.
In the same order, the values of `C[C@@]12CCC[C@@](C)(C(=O)O)[C@H]1CC[C@@]13C[C@H](CC[C@H]12)[C@@](O)(CO)C3` are 7.2%, 2.3%, 8.9% and 0.4%.
For `C[C@@]12CCC[C@@](C)(O)[C@H]1CC[C@@]13C[C@H](CC[C@H]12)[C@](O)(CO)C3` [ANNOSQUAMOSIN B] the same measures were 8.7%, 21.1%, 8.5% and 1.6%.
In the same order, the values of `CC(=O)OC[C@]1(O)C[C@@]23CC[C@H]4[C@@](C)(CCC[C@@]4(C)C(=O)O)[C@@H]2CC[C@H]1C3` are 10.8%, 30.1%, 11.1% and 8%.
For the compound `C[C@@]12CCC[C@@](C)(C=O)[C@H]1CC[C@@]13C[C@@H](CC[C@H]12)[C@@](O)(CO)C3`, the inhibition at 200 µM came out at 0.5% in assay [1], 4.9% in assay [2], 10.3% in assay [3] and 3.2% in assay [4].
For `C=C1C[C@@]23CC[C@H]4[C@@](C)(CCC[C@@]4(C)C(=O)O)[C@@H]2CC[C@@H]1C3` [KAURENOIC ACID] the same measures were 24.8%, 100%, 12.6% and 5.6%.
For `C[C@@]12CCC[C@@](C)(C=O)[C@H]1CC[C@@]13C[C@@H](CC[C@H]12)[C@](O)(CO)C3` the same measures were 9.6%, 17.6%, 5.5% and 0%.
